# From patent publication US8580965B2, “Substituted sulfonamide compounds” (Gruenenthal GmbH, priority 2006, dated 2013)
# Counter-ions that a name gives are not always drawn.
# Legend:
# [1] = molecular target: T1, B1R receptor of the rat (bradykinin 1 receptor) (Rattus norvegicus, UniProt P97583); assay: FLIPR Ca2+ assay (Fluo-4) on CHO K1 cells stably transfected with the B1R gene of the rat; % activation and % inhibition at 10 μM; type: cell-based; conditions: CHO K1 rB1R cells, Ca2+ inflow after 100 nM Des-Arg9-bradykinin; for inhibition at 10 µM: CHO-K1, test substance 10 μM, read-out: B1R antagonism, rat [10 μM] % inhibition
# T1 construct: host or cells: CHO K1 cells (rB1R cells)
# T1 sequence (P97583 1-337): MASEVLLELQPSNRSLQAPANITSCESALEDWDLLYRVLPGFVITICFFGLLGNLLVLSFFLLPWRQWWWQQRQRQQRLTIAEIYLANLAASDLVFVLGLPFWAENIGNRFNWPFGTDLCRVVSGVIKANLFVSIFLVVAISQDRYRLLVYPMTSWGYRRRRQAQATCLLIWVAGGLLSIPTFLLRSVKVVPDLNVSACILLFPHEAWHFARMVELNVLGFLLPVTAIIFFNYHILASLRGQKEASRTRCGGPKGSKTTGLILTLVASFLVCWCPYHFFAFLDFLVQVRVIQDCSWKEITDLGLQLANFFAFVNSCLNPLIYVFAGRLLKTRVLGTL
# In short: (§1)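 CHO K1 cells stably expressing human or rat B1R, Fluo-4 loaded, read by FLIPR (peak fluorescence). Compound at 10 µM first gives % activation versus agonist; after 10 min, agonist (human: 0.5 nM Lys-Des-Arg9-bradykinin; rat: 100 nM Des-Arg9-bradykinin) gives % inhibition relative to maximal inhibition.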
# [2] = system: formalin-induced nociceptive reaction (phase 2); assay: Formalin test mouse (phase 2, chronic pain component); type: in vivo; conditions: phase 2 (21 to 24 min after formalin), i.v., 10 mg/kg, 5 min before formalin, change in percent compared with vehicle control
# Experimental: The formalin test (Dubuisson, D. and Dennis, S. G., 1977, Pain, 4, 161-174) represents a model for both acute and chronic pain. By means of a single formalin injection into the dorsal side of a rear paw, a biphasic nociceptive reaction is induced in freely mobile test animals; the reaction is detected by observing three behavior patterns which are clearly distinguishable from one another. The reaction is two-phase: phase 1=immediate reaction (duration up to 10 min., shaking of the paw, licking), phase 2=late reaction (after a rest phase; likewise shaking of the paw, licking; duration up to 60 min.). […] In the studies described here, the chronic pain component (phase 2) has been evaluated.
# Formalin in a volume of 20 μl and a concentration of 1% is administered subcutaneously into the dorsal side of the right rear paw of each animal. The specific changes in behavior, such as lifting, shaking or licking of the paw (score 3, Dubuisson & Dennis, 1977), are observed and recorded in the observation period of 21 to 24 min following the formalin injection.
# The behavior of the animals after administration of the substance (n=10 per dose of substance) was compared with a control group which received vehicle (n=10). Based on the quantification of the pain behavior, the activity of the test substance in the formalin test was determined as the change, in percent, compared with the control. […]
# [3] = molecular target: T2, human B1R receptor (bradykinin 1 receptor) (Homo sapiens, UniProt P46663); assay: FLIPR Ca2+ assay (Fluo-4) on CHO K1 cells stably transfected with the human B1R gene; % activation and % inhibition at 10 μM; type: cell-based; conditions: CHO K1 hB1R cells, Ca2+ inflow after 0.5 nM Lys-Des-Arg9-bradykinin; for inhibition at 10 µM: CHO-K1, test substance 10 μM, read-out: B1R antagonism, human [10 μM] % inhibition
# T2 construct: host or cells: CHO K1 cells (hB1R cells)
# T2 sequence (P46663 1-353): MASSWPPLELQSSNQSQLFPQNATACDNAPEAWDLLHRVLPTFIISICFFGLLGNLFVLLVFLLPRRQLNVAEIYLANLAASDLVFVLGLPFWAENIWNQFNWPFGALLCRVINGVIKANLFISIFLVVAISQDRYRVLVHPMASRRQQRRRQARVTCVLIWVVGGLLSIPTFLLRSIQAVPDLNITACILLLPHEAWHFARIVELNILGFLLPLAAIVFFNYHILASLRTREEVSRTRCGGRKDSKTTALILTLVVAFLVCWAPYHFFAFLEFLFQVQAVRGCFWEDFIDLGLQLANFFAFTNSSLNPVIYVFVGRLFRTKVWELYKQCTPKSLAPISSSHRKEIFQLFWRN
# In short: as §1
# [4] = test substance 10 μM, hydrochloride
Structure (SMILES),"B1R antagonism, rat [10 μM] % inhibition [1, 4]",Substance action: antinociception [2],"B1R antagonism, human [10 μM] % inhibition [3, 4]",inhibition at 10 µM [1],inhibition at 10 µM [3]
"COc1cc(C)c(S(=O)(=O)N2CCCCC2COCC(=O)N2CCC(O)(c3cccnc3)CC2)c(C)c1 (stereo not shown) [Example 87, 1-(4′-hydroxy-3′,4′,5′,6′-tetrahydro-2′H-[3,4′]bipyridinyl-1′-yl)-2-[1-(4-methoxy-2,6-dimethyl-phenylsulfonyl)-piperidin-2-ylmethoxy]-ethanone; hydrochloride]",101.93%,23% antinociception,101.8%,–,–
"O=C(COCC1CCCCN1S(=O)(=O)c1ccccc1C(F)(F)F)N1CCC(O)(c2ccc(Cl)c(C(F)(F)F)c2)CC1 (stereo not shown) [Example 178, 1-(4-(4-chloro-3-(trifluoromethyl)phenyl)-4-hydroxypiperidin-1-yl)-2-((1-(2-(trifluoromethyl)phenylsulfonyl)piperidin-2-yl)methoxy)ethanone]",–,–,–,104%,89.4%
"COc1ccc(S(=O)(=O)N2CCC(OCC(=O)N3CCC(O)(Cc4ccccc4)CC3)(c3ccccc3)CC2)cc1 [Example 82, 1-(4-benzyl-4-hydroxy-piperidin-1-yl)-2-[1-(4-methoxy-phenylsulfonyl)-4-phenyl-piperidin-4-yloxy]-ethanone]",–,–,–,17.9%,9.32%
"COc1cc(C)c(S(=O)(=O)N(C)CCOCC(=O)N2CCC(O)(CCc3cccnc3)CC2)c(C)c1 [Example 140, N-(2-(2-(4-hydroxy-4-(2-(pyridin-3-yl)ethyl)piperidin-1-yl)-2-oxoethoxy)ethyl)-4-methoxy-N,2,6-trimethylphenylsulfonamide]",–,–,–,101%,104%
"COc1cc(C)c(S(=O)(=O)N(CCOCC(=O)N2CCC(O)(c3cccs3)CC2)CC(C)C)c(C)c1C [Example 269, N-(2-(2-(4-hydroxy-4-(thiophen-2-yl)piperidin-1-yl)-2-oxoethoxy)ethyl)-N-isobutyl-4-methoxy-2,3,6-trimethylphenylsulfonamide]",–,–,–,99.1%,98.4%
"COc1cc(C)c(S(=O)(=O)N2Cc3ccccc3C[C@H]2COCC(=O)N2CCC(O)(c3cccnc3)CC2)c(C)c1 [Example 128, (S)-1-(4-hydroxy-4-(pyridin-3-yl)piperidin-1-yl)-2-((2-(4-methoxy-2,6-dimethylphenylsulfonyl)-1,2,3,4-tetrahydroisoquinolin-3-yl)methoxy)ethanone]",–,–,–,98.8%,101%
"COc1cc(C)c(S(=O)(=O)N(C)CCOCC(=O)N2CCC(O)(c3cccnc3)CC2)c(C)c1 [Example 143, N-(2-(2-(4-hydroxy-4-(pyridin-3-yl)piperidin-1-yl)-2-oxoethoxy)ethyl)-4-methoxy-N,2,6-trimethylphenylsulfonamide]",–,–,–,100%,105%
"CN(CCOCC(=O)N1CCC(O)(c2ccccn2)CC1)S(=O)(=O)c1ccc(Cl)s1 [Example 103, 5-chloro-thiophene-2-sulfonic acid {2-[2-(4′-hydroxy-3′,4′,5′,6′-tetrahydro-2′H-[2,4′]bipyridinyl-1′-yl)-2-oxo-ethoxy]-ethyl}-methyl-amide]",–,–,–,19.3%,-9.25%
"Cc1cc(S(=O)(=O)N(C)CCOCC(=O)N2CCC(O)(c3cccc(C(F)(F)F)c3)CC2)c(C)cc1Cl [Example 154, 4-chloro-N-(2-(2-(4-hydroxy-4-(3-(trifluoromethyl)phenyl)piperidin-1-yl)-2-oxoethoxy)ethyl)-N,2,5-trimethylphenylsulfonamide]",–,–,–,96.4%,98.8%
